PMC11984586, “A novel spider toxin as a selective antagonist of the Kv1 subfamily of voltage-gated potassium channels through gating modulation” (The Journal of Biological Chemistry, 2025)
Read-outs that look alike come from different tables or passages of the source. Bridge positions count the residues as written; N and C are the ends. Peptide text beside a SMILES is read from it.

What was measured:
Format in all cases: cell-based
[1] = target: T1, Kv1.3/T342A (Homo sapiens, UniProt P22001, T342A); test: Whole-cell patch clamp, Kv1.3 alanine mutant
T1 construct: expressed in transfected cells; host or cells: CHO-K1
T1 sequence (P22001 whole entry T342A): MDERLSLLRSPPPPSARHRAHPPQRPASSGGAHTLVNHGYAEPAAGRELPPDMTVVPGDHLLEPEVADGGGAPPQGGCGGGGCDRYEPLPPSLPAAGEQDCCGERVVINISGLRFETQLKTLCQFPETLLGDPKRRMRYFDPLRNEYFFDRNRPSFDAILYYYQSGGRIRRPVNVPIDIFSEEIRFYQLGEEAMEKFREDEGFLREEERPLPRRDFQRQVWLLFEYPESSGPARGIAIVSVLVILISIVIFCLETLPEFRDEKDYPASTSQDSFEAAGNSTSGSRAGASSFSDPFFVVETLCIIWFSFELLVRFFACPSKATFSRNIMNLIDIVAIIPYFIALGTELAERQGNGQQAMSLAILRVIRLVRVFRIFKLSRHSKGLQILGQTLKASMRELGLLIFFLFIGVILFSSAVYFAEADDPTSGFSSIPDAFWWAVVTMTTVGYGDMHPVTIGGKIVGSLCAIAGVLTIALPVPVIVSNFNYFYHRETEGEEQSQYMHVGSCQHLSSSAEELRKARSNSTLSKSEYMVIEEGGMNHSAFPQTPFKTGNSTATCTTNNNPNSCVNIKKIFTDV
Experimental: (§1) MrVIII inhibits Kv1 channels by stabilizing the voltage sensor in its resting state. […] To investigate this hypothesis, we constructed a series of alanine mutants in the S3-S4 region of the Kv1.3 channel, covering residues I336 to L363, to identify critical interactions between the peptide and the channel (Fig. 6A). […] For the remaining mutants that retained functional current expression, we evaluated the inhibitory activity of 100 nM MrVIII. […] The lack of conserved multiple interaction sites may explain the absence of activity on other Kv subfamily channels (Fig. S3). In summary, this study identified key amino acid residues in the S3-S4 region of the Kv1.3 channel that interact with MrVIII, providing a foundation for further exploration into the peptide's mechanism of action.
(§2) The cDNA of hKv1.1, hKv1.2, hKv1.3, rKv1.4, hKv1.5, mKv1.6, and hKv1.7 were subcloned into mammalian expression vectors pcDNA3.1 or pCMV-blank vectors, as well as other plasmids described previously ([35]). Channel mutants were generated by site-directed mutations. Briefly, the parental channel plasmid was amplified using a pair of oppositely directed primers harboring the designed mutation site, with KOD Fx (TOYOBO Co, Ltd). The resulting PCR mix was treated with FastDigest DpnI (Thermo Fisher Scientific) to remove the methylated template. Ten microliters of the digested product was then used to transform 100 μl E. coli DH5α competent cells. Transformants were randomly picked and sequenced to confirm the presence of the intended mutation.
(§3) CHO-K1 cells were selected for expressing Kv channels due to their lack of endogenous Kv channels, while HEK293 or ND7/23 cells were used for Nav and Cav channel expression. CHO-K1 cells were cultured in a Dulbecco's modified Eagle's medium/Ham's F-12 nutrient mixture (DMEM-F12) medium, and HEK293T and ND7/23 cells in DMEM medium, all supplemented with 10% fetal bovine serum and 1% penicillin-streptomycin (all from Gibco, Thermo Fisher Scientific, Inc) under standard conditions (37 °C, 5% CO2, and saturated humidity). These cell lines were purchased from Stem Cell Bank, Chinese Academy of Sciences. Channel plasmids were cotransfected with pEGFP-N1 (encoding GFP) into the respective cells using lipofectamine 2000, following the manufacturer's instructions (Invitrogen, Thermo Fisher Scientific, Inc.). Nav1.9-GFP plasmid was transfected into ND7/23 using the X-tremeGENE HP DNA Transfection Reagent (Roche). After 4 to 6 h transfection, cells were seeded onto poly-lysine–coated coverslips, and 24 to 36 h later, transfected cells were ready for patch-clamp analysis.
(§4) Patch clamp experiments were conducted using an electrophysiology platform comprising a MultiClamp 700B amplifier and an Axon Digidata 1550 AD/DA convertor (Axon Instruments). Data acquisition was performed with pClamp 10.5 software (Axon Instruments). All experiments were performed at room temperature.
(§5) For Kv current recordings, the bath solution contained (in mM) the following: 140 NaCl, 5 KCl, 1 MgCl2, 2 CaCl2, 10 glucose, and 10 Hepes (pH 7.3, adjusted with NaOH), and the pipette solution contained (in mM) the following: 140 KCl, 2.5 MgCl2, 11 EGTA, and 10 Hepes (pH 7.3, adjusted with KOH). Series resistance was maintained below 10 MΩ and compensated to 80%. Concentration–response curves were fitted by the Hill equation to determine the toxin's potency. Whole cell conductance (G) at each depolarizing voltage (V) was determined using the equation: G = I/(V−Vrev), where I is the current amplitude, and Vrev is the reversal potential. The reversal potential for K^+ current was estimated to be −85.6 mV using the Nernst equation. G-V curves were obtained by plotting the normalized conductance as a function of V and fitted by the Boltzmann equation: y = 1/(1+ exp((Va-V)/k)), which Va is the midpoint voltage, V is the test potential, and k is the slope factor. The steady-state fast inactivation of Kv1.3 was measured using a two-pulses protocol. […]

[2] = target: T2, Kv1.3/L360A (Homo sapiens, UniProt P22001, L360A); test: Whole-cell patch clamp, Kv1.3 alanine mutant
T2 construct: expressed in transfected cells; host or cells: CHO-K1
T2 sequence (P22001 whole entry L360A): as the sequence (P22001 whole entry T342A) above, with A342T, L360A counted along it
Experimental: as §1, §2, §3, §4, §5

[3] = target: T3, Kv1.3/I341A (Homo sapiens, UniProt P22001, I341A); test: Whole-cell patch clamp, Kv1.3 alanine mutant
T3 construct: expressed in transfected cells; host or cells: CHO-K1
T3 sequence (P22001 whole entry I341A): as the sequence (P22001 whole entry T342A) above, with I341A, A342T counted along it
Experimental: as §1, §2, §3, §4, §5

[4] = target: T4, Kv1.3/L343A (Homo sapiens, UniProt P22001, L343A); test: Whole-cell patch clamp, Kv1.3 alanine mutant
T4 construct: expressed in transfected cells; host or cells: CHO-K1
T4 sequence (P22001 whole entry L343A): as the sequence (P22001 whole entry T342A) above, with A342T, L343A counted along it
Experimental: as §1, §2, §3, §4, §5

[5] = target: T5, Kv1.3/L347A (Homo sapiens, UniProt P22001, L347A); test: Whole-cell patch clamp, Kv1.3 alanine mutant
T5 construct: expressed in transfected cells; host or cells: CHO-K1
T5 sequence (P22001 whole entry L347A): as the sequence (P22001 whole entry T342A) above, with A342T, L347A counted along it
Experimental: as §1, §2, §3, §4, §5

[6] = target: T6, Kv1.3/E346A (Homo sapiens, UniProt P22001, E346A); test: Whole-cell patch clamp, Kv1.3 alanine mutant
T6 construct: expressed in transfected cells; host or cells: CHO-K1
T6 sequence (P22001 whole entry E346A): as the sequence (P22001 whole entry T342A) above, with A342T, E346A counted along it
Experimental: as §1, §2, §3, §4, §5

[7] = target: T7, Kv1.7/I386C mutant (Kv1.7∗) (Homo sapiens, UniProt Q96RP8, I386C); test: Gating-current recording, Kv1.7* in HEK293T cells; settings: for inhibition at 10 µM: HEK-293T
T7 construct: expressed in transfected cells; host or cells: HEK293T
T7 sequence (Q96RP8 whole entry I386C): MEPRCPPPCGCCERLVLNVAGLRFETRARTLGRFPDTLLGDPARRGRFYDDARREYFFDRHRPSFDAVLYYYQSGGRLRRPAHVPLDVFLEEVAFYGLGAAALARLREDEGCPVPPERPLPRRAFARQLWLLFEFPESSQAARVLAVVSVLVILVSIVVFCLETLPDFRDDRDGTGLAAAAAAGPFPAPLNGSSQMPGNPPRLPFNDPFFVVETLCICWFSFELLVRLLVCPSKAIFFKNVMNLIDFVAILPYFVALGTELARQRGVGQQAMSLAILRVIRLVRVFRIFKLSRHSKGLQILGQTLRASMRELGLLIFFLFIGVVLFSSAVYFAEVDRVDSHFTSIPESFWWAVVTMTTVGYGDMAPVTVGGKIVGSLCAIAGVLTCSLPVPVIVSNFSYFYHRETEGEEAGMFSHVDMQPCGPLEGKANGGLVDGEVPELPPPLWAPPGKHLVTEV
Experimental: as §2, §3, §4
Gating currents were recorded by transfecting HEK293T cells with a saturating dose of plasmid to ensure maximal channel expression. The Kv1.3/I472C and Kv1.7/I386C mutants were used to record the IgOFF, minimizing slow voltage sensor return as reported in previous studies ([28]). The bath solution contained (in mM) the following: 140 NMDG, 50 Hepes, 2 CaCl2, 2 MgCl2, 0.1 EDTA, and 0.01 CsCl (pH 7.3, adjusted with methanesulfonic acid), and the pipette solution contained (in mM) the following: 140 NMDG, 1 NMDG-Cl, 50 HF, 5 EGTA, and 50 Hepes (pH 7.3, adjusted with methanesulfonic acid). Gating charge movement (Q) was determined by integrating the area under the IgON and IgOFF traces, representing voltage sensor movement in response to depolarizing pulses. The data were normalized and plotted against voltage to generate Q-V curves, which were fitted using a Boltzmann function to estimate the voltage dependence of charge movement.

[8] = 100 nM MrVIII on mutant compared with 10 nM on WT Kv1.3, +30 mV, n = 4–7

CC[C@H](C)[C@@H]1NC(=O)[C@H](Cc2ccc(O)cc2)NC(=O)[C@H](CCC(N)=O)NC(=O)[C@@H]2CCCN2C(=O)[C@@H]2CSSC[C@H](NC(=O)[C@H](C)NC(=O)[C@H](CO)NC(=O)[C@H](CCC(=O)O)NC(=O)[C@H](CCC(=O)O)NC(=O)[C@@H](N)[C@@H](C)O)C(=O)NCC(=O)NCC(=O)N[C@@H](Cc3ccccc3)C(=O)N[C@@H](CC(N)=O)C(=O)N[C@@H](C)C(=O)N[C@@H](CCCNC(=N)N)C(=O)N[C@H]3CSSC[C@H](NC1=O)C(=O)N[C@@H](CCCCN)C(=O)NCC(=O)N[C@@H](Cc1c[nH]c4ccccc14)C(=O)N[C@@H](CCCNC(=N)N)C(=O)N[C@@H]([C@@H](C)O)C(=O)N[C@@H](CCCCN)C(=O)N[C@@H](CCCNC(=N)N)C(=O)N[C@H](C(=O)N[C@@H](CC(C)C)C(=O)N[C@@H](CC(N)=O)C(=O)N1CCC[C@H]1C(=O)O)CSSC[C@H](NC(=O)[C@H](CCCCN)NC(=O)[C@H](Cc1c[nH]cn1)NC(=O)[C@H](CC(C)C)NC(=O)[C@@H]1CCCN1C3=O)C(=O)N2 [MrVIII] (H-TEESACGGFNARCPLHKCCPQYICKGWRTKRCLNP-OH; disulfide 6-19, 13-24, 18-32; N-terminus and C-terminus assumed)
decrease of inhibitory potency vs WT Kv1.3, T342A [1, 8]: more than 10 fold
IC50 ([1]; current at 50 ms, +30 mV, mean ± SD, n = 4–6, SD): 143 ± 38.2 nM
inhi%(495 ms), Kv1.3/T342A current ([1]; current at 495 ms, +30 mV, mean ± SD, n = 4–6, SD): 27.7 ± 12.9%
decrease of inhibitory potency vs WT Kv1.3, L360A [2, 8]: more than 10 fold
IC50 ([2]; +30 mV, 500 ms, mean ± SD, n = 4–6, SD, read-out: IC50, Kv1.3/L360A current): 148 ± 60.4 nM
decrease of inhibitory potency vs WT Kv1.3, I341A [3, 8]: more than 10 fold
IC50 ([3]; +30 mV, 500 ms, mean ± SD, n = 4–6, SD, read-out: IC50, Kv1.3/I341A current): 41 ± 26.3 nM
decrease of inhibitory potency vs WT Kv1.3, L343A [4, 8]: more than 10 fold
IC50 ([4]; +30 mV, 500 ms, mean ± SD, n = 4–6, SD, read-out: IC50, Kv1.3/L343A current): 135 ± 34 nM
decrease of inhibitory potency vs WT Kv1.3, L347A [5, 8]: more than 10 fold
IC50 ([5]; +30 mV, 500 ms, mean ± SD, n = 4–6, SD, read-out: IC50, Kv1.3/L347A current): 85.7 ± 41.3 nM
decrease of inhibitory potency vs WT Kv1.3, E346A [6, 8]: more than 10 fold
IC50 ([6]; +30 mV, 500 ms, mean ± SD, n = 4–6, SD, read-out: IC50, Kv1.3/E346A current): 51.1 ± 21.1 nM
Va of Q-V curve of Kv1.7∗ after toxin ([7]; 500 nM MrVIII, before toxin −6.4 ± 2.9 mV, mean ± SD, n = 5, SD): −4.3 ± 3.8 mV
effect on IgON of Kv1.7∗ ([7]; 10 μM MrVIII, 500 ms depolarization): completely inhibited
IC50 ([7]; +30 mV for 50 ms, held at −100 mV, HEK293T, mean ± SD, n = 11, SD, read-out: IC50, inhibition of IgON current of Kv1.7∗): 214 ± 91.8 nM
inhibition at 10 µM ([7]; 10 μM MrVIII, 50 ms depolarization at +30 mV, mean ± SD, n = 11, SD, read-out: inhibition of IgOFF of Kv1.7∗): ~74.1%
inhibition at 10 µM ([7]; 10 μM MrVIII, 500 ms depolarization, mean ± SD, n = 5, SD, read-out: inhibition rate of IgOFF of Kv1.7∗): 13.1 ± 5.5%
